In the supplement of paper PMC11368000:

Experiments:
Conditions in all cases: exposure time: 90 min
1368 = donor line of iPSC-derived cardiomyocytes; assay: POD (EC05) for increase in beat frequency (positive chronotrope) vs vehicle; higher = less potent (higher point of departure)
Procedure: (§1)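 Human iPSC-derived cardiomyocytes from 16 donors were exposed for 90 min at 37 °C to each PFAS at 0.1, 1, 10 and 100 µM in 0.5% DMSO, 384-well plates. Kinetic Ca2+ flux (FLIPR) and Hoechst nuclei counts were normalised to vehicle wells and fitted with a hierarchical Bayesian Hill model to give donor-specific PODs: EC05 for beat-rate increase or decrease and for decay-to-rise ratio increase (QT proxy), EC95 for peak-frequency loss (asystole), EC10 for total cell number loss. 0.03 µM is the lower bound.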

1083 = donor line of iPSC-derived cardiomyocytes; assay: as above
Procedure: as §1

1531 = donor line of iPSC-derived cardiomyocytes; assay: as above
Procedure: as §1

30171 [1] = donor line of iPSC-derived cardiomyocytes; assay: as above
Procedure: as §1

20032 = donor line of iPSC-derived cardiomyocytes; assay: as above
Procedure: as §1

1118 = donor line of iPSC-derived cardiomyocytes; assay: as above
Procedure: as §1

1535 = donor line of iPSC-derived cardiomyocytes; assay: as above
Procedure: as §1

1518 = donor line of iPSC-derived cardiomyocytes; assay: as above
Procedure: as §1

11235 = donor line of iPSC-derived cardiomyocytes; assay: as above
Procedure: as §1

1565 = donor line of iPSC-derived cardiomyocytes; assay: as above
Procedure: as §1

1516 [2] = donor line of iPSC-derived cardiomyocytes; assay: as above
Procedure: as §1

1434 = donor line of iPSC-derived cardiomyocytes; assay: as above
Procedure: as §1

1392 [3] = donor line of iPSC-derived cardiomyocytes; assay: as above
Procedure: as §1

20084 = donor line of iPSC-derived cardiomyocytes; assay: as above
Procedure: as §1

1309 [4] = donor line of iPSC-derived cardiomyocytes; assay: as above
Procedure: as §1

30171 [5] = assay: POD (EC10) for decrease in total cell number (cytotoxicity) vs vehicle; higher = less potent (higher point of departure)
Procedure: as §1

1516 [6] = assay: as above
Procedure: as §1

1392 [7] = assay: as above
Procedure: as §1

30145 = donor line of iPSC-derived cardiomyocytes; assay: as above
Procedure: as §1

1309 [8] = assay: as above
Procedure: as §1

Compound	POD vs vehicle 1368	POD vs vehicle 1083	POD vs vehicle 1531	POD vs vehicle 30171 [1]	POD vs vehicle 20032	POD vs vehicle 1118	POD vs vehicle 1535	POD vs vehicle 1518	POD vs vehicle 11235	POD vs vehicle 1565	POD vs vehicle 1516 [2]	POD vs vehicle 1434	POD vs vehicle 1392 [3]	POD vs vehicle 20084	POD vs vehicle 1309 [4]	POD vs vehicle 30171 [5]	POD vs vehicle 1516 [6]	POD vs vehicle 1392 [7]	POD vs vehicle 30145	POD vs vehicle 1309 [8]
NC(=O)C(F)(F)C(F)(F)C(F)(F)C(F)(F)C(F)(F)C(F)(F)C(F)(F)F [Perfluorooctanamide]	> 100 µM	> 100 µM	> 100 µM	> 100 µM	> 100 µM	> 100 µM	> 100 µM	> 100 µM	> 100 µM	> 100 µM	> 100 µM	> 100 µM	> 100 µM	> 100 µM	> 100 µM	> 100 µM	> 100 µM	> 100 µM	> 100 µM	> 100 µM
OCC(F)(F)C(F)(F)C(F)(F)CO [Hexafluoroamylene_glycol]	> 100 µM	> 100 µM	> 100 µM	> 100 µM	> 100 µM	> 100 µM	> 100 µM	> 100 µM	> 100 µM	> 100 µM	> 100 µM	> 100 µM	> 100 µM	> 100 µM	> 100 µM	> 100 µM	> 100 µM	> 100 µM	> 100 µM	> 100 µM
CC(O)C(F)(F)C(F)(F)F (stereo not given) [1-Pentafluoroethylethanol]	> 100 µM	> 100 µM	> 100 µM	> 100 µM	> 100 µM	> 100 µM	> 100 µM	> 100 µM	> 100 µM	> 100 µM	> 100 µM	> 100 µM	> 100 µM	> 100 µM	> 100 µM	> 100 µM	> 100 µM	> 100 µM	> 100 µM	> 100 µM
NC(=O)C(F)(F)C(F)(F)C(F)(F)C(F)(F)C(N)=O [Octafluoroadipamide]	> 100 µM	> 100 µM	> 100 µM	> 100 µM	> 100 µM	> 100 µM	> 100 µM	> 100 µM	> 100 µM	> 100 µM	> 100 µM	> 100 µM	> 100 µM	> 100 µM	> 100 µM	> 100 µM	> 100 µM	> 100 µM	> 100 µM	> 100 µM
O=C(O)C(F)(F)OC(F)(F)C(F)(F)OC(F)(F)F [Perfluoro-3,6-dioxaheptanoic_acid]	> 100 µM	> 100 µM	> 100 µM	> 100 µM	> 100 µM	> 100 µM	> 100 µM	> 100 µM	> 100 µM	> 100 µM	> 100 µM	> 100 µM	> 100 µM	> 100 µM	> 100 µM	> 100 µM	> 100 µM	> 100 µM	> 100 µM	> 100 µM
O=C(O)C(F)(F)C(F)(F)F [Perfluoropropanoic_acid]	> 100 µM	> 100 µM	> 100 µM	> 100 µM	> 100 µM	> 100 µM	> 100 µM	> 100 µM	> 100 µM	> 100 µM	> 100 µM	> 100 µM	> 100 µM	> 100 µM	> 100 µM	> 100 µM	> 100 µM	> 100 µM	> 100 µM	> 100 µM
O=C(O)C(F)(F)C(F)(F)C(F)(F)OC(F)(F)F [Perfluoro(4-methoxybutanoic)_acid]	> 100 µM	> 100 µM	> 100 µM	> 100 µM	> 100 µM	> 100 µM	> 100 µM	> 100 µM	> 100 µM	> 100 µM	> 100 µM	> 100 µM	> 100 µM	> 100 µM	> 100 µM	> 100 µM	> 100 µM	> 100 µM	> 100 µM	> 100 µM
O=S(=O)(O)CCC(F)(F)C(F)(F)C(F)(F)C(F)(F)C(F)(F)C(F)(F)F [6:2 Fluorotelomer sulfonic acid]	> 100 µM	> 100 µM	> 100 µM	> 100 µM	> 100 µM	> 100 µM	> 100 µM	> 100 µM	> 100 µM	> 100 µM	> 100 µM	> 100 µM	> 100 µM	> 100 µM	> 100 µM	> 100 µM	> 100 µM	> 100 µM	> 100 µM	> 100 µM
O=C(O)CCC(F)(F)C(F)(F)C(F)(F)C(F)(F)C(F)(F)C(F)(F)C(F)(F)F [3-Perfluoroheptylpropanoic_acid]	> 100 µM	> 100 µM	> 100 µM	> 100 µM	> 100 µM	> 100 µM	> 100 µM	> 100 µM	> 100 µM	> 100 µM	> 100 µM	> 100 µM	> 100 µM	> 100 µM	> 100 µM	> 100 µM	> 100 µM	> 100 µM	> 100 µM	> 100 µM
O=C(O)C=CC(F)(C(F)(F)F)C(F)(F)F [3-(Perfluoroisopropyl)-2-propenoic_acid]	> 100 µM	> 100 µM	> 100 µM	> 100 µM	> 100 µM	> 100 µM	> 100 µM	> 100 µM	> 100 µM	> 100 µM	> 100 µM	> 100 µM	> 100 µM	> 100 µM	> 100 µM	> 100 µM	> 100 µM	> 100 µM	> 100 µM	> 100 µM
NS(=O)(=O)C(F)(F)C(F)(F)C(F)(F)C(F)(F)C(F)(F)C(F)(F)F [Perfluorohexanesulfonamide]	> 100 µM	> 100 µM	> 100 µM	> 100 µM	> 100 µM	> 100 µM	> 100 µM	> 100 µM	> 100 µM	> 100 µM	> 100 µM	> 100 µM	> 100 µM	> 100 µM	> 100 µM	> 100 µM	61.1 µM	> 100 µM	> 100 µM	70.7 µM
OCC(F)(F)C(F)(F)C(F)(F)C(F)(F)C(F)(F)C(F)F [Dodecafluoroheptanol]	> 100 µM	> 100 µM	> 100 µM	> 100 µM	> 100 µM	> 100 µM	> 100 µM	> 100 µM	> 100 µM	> 100 µM	> 100 µM	> 100 µM	> 100 µM	> 100 µM	> 100 µM	46.4 µM	> 100 µM	> 100 µM	> 100 µM	> 100 µM
O=C(O)C(F)(F)C(F)(F)C(F)(F)C(F)(F)C(F)(F)C(F)(F)C(F)(F)C(F)(F)C(F)(F)F [Perfluorodecanoic_acid]	> 100 µM	> 100 µM	> 100 µM	> 100 µM	> 100 µM	> 100 µM	> 100 µM	> 100 µM	> 100 µM	> 100 µM	> 100 µM	> 100 µM	> 100 µM	> 100 µM	> 100 µM	> 100 µM	> 100 µM	> 100 µM	> 100 µM	> 100 µM
O=C(O)C(F)(F)C(F)(F)C(F)(F)C(F)(F)C(F)(F)F [Perfluorohexanoic_acid]	> 100 µM	> 100 µM	> 100 µM	> 100 µM	> 100 µM	> 100 µM	> 100 µM	> 100 µM	> 100 µM	> 100 µM	> 100 µM	> 100 µM	> 100 µM	> 100 µM	> 100 µM	> 100 µM	> 100 µM	> 100 µM	> 100 µM	> 100 µM
OCCC(F)(F)C(F)(F)C(F)(F)C(F)(F)C(F)(F)C(F)(F)F [6:2 Fluorotelomer alcohol]	> 100 µM	> 100 µM	> 100 µM	> 100 µM	> 100 µM	> 100 µM	5.24 µM	> 100 µM	> 100 µM	> 100 µM	> 100 µM	1.73 µM	> 100 µM	> 100 µM	> 100 µM	> 100 µM	> 100 µM	> 100 µM	> 100 µM	> 100 µM
NC(=O)C(F)(F)C(F)(F)C(F)(F)F [Heptafluorobutyramide]	> 100 µM	> 100 µM	> 100 µM	> 100 µM	> 100 µM	> 100 µM	> 100 µM	> 100 µM	> 100 µM	> 100 µM	> 100 µM	> 100 µM	> 100 µM	> 100 µM	> 100 µM	> 100 µM	> 100 µM	> 100 µM	> 100 µM	> 100 µM
O=C(O)C(F)(F)C(F)(F)C(F)(F)C(F)(F)C(F)(F)C(F)(F)C(F)(F)F [Perfluorooctanoic_acid]	> 100 µM	> 100 µM	> 100 µM	> 100 µM	> 100 µM	> 100 µM	> 100 µM	> 100 µM	> 100 µM	> 100 µM	> 100 µM	> 100 µM	> 100 µM	> 100 µM	> 100 µM	> 100 µM	> 100 µM	> 100 µM	> 100 µM	> 100 µM
O=S(=O)(O)C(F)(F)C(F)(F)C(F)(F)C(F)(F)C(F)(F)C(F)(F)F [Perfluorohexanesulfonic_acid]	> 100 µM	> 100 µM	> 100 µM	> 100 µM	> 100 µM	> 100 µM	> 100 µM	> 100 µM	> 100 µM	> 100 µM	> 100 µM	> 100 µM	> 100 µM	> 100 µM	> 100 µM	> 100 µM	> 100 µM	> 100 µM	> 100 µM	> 100 µM
O=C(O)C(F)(F)C(F)(F)C(F)(F)C(F)(F)C(=O)O [Octafluoroadipic_acid]	> 100 µM	> 100 µM	> 100 µM	> 100 µM	> 100 µM	> 100 µM	> 100 µM	> 100 µM	> 100 µM	> 100 µM	> 100 µM	> 100 µM	> 100 µM	> 100 µM	> 100 µM	> 100 µM	> 100 µM	54.6 µM	> 100 µM	> 100 µM
